Measured values from article PMC9863297, “Intermolecular Interactions of Edaravone in Aqueous Solutions of Ethaline and Glyceline Inferred from Experiments and Quantum Chemistry Computations” (Molecules, 2023).
Where two headings read alike, the source gives them in different places.

Assay: Edaravone solubility, slurry/shake-flask method with spectrophotometric determination at 243 nm
Type: physicochemical
Settings: thermodynamic from solid, read-out: cE solubility concentration
Method: The first step in obtaining a calibration curve was the preparation of a stock solution of edaravone with a concentration of 2.3 mg/mL. This initial solution was successfully diluted in 10 mL volumetric flasks with methanol and the obtained solutions with decreasing concentrations were measured spectrophotometrically. […] Three separate curves were obtained, and the final curve resulted from averaging. […] The limits of detection (LOD) and quantification (LOQ) were calculated as 5.899∙10^−4 mg/mL and 1.770∙10^−3 mg/mL, respectively.
All of the studied deep eutectic solvents included choline chloride, while the second constituent was either glycerol or ethylene glycol. In order to prepare a DES formulation, choline chloride was mixed with the second compound in different molar ratios in sealed test tubes and placed in a water bath at 363.15 K until the formation of a uniform solution. The obtained DES were either used in their neat form or water was added to them in different proportions in order to form binary systems.
During the next stage, edaravone was added in excess amounts to the test tubes containing both neat DES and binary mixtures, which enabled us to obtain its saturated solutions. Samples prepared in such a manner were placed in an Orbital Shaker Incubator ES-20/60 from Biosan (Riga, Latvia) and incubated for 24 h at different temperatures, namely 298.15 K, 303.15 K, 308.15 K and 313.15 K. The temperature adjustment accuracy was 0.1 K and its variability in a 24 h cycle was ±0.5 K. Apart from heating, all of the samples were mixed at 60 rev/min. The increased viscosity and density of DES systems required the samples to be centrifuged at 1000 rev/min for 5 min with the use of EBA 20 centrifuge from Hettich (Tuttlingen, Germany) enabling the undissolved precipitate to remain on the bottom of the test tubes. Next, the samples were filtered using a syringe equipped with a PTFE syringe filer with 0.22 µm pore size. In order to avoid precipitation, the test tubes, syringes and filters were initially heated at a temperature equal to the one of the handled samples. Finally, small amounts of the obtained filtrate were transferred to test tubes filled with methanol and the diluted samples were measured spectrophotometrically. Additionally, for the determination of the mole fractions of edaravone, the density of the samples was measured by weighing a fixed volume of the solution in 10 mL volumetric flasks.
For determining the solubility of edaravone in the studied systems, the samples prepared, as described above, were measured spectrophotometrically using an A360 spectrophotometer from AOE Instruments (Shanghai, China). The spectra were recorded in the 190 nm to 500 nm wavelength range and 1 nm resolution. Methanol was used for the initial calibration of the spectrophotometer and for the dilution of the measured samples, which was conducted in order for the absorbance values to remain below 2.5. The absorbance values at 243 nm were taken into account and based on the calibration curve prepared earlier, the concentration of edaravone in the samples was determined, followed by its mole fractions. The values were averaged from three separate measurements.

## CC1=NN(c2ccccc2)C(=O)C1 [edaravone, 5-methyl-2-phenyl-4H-pyrazol-3-one]
25 °C, aqueous with cosolvent or surfactant or cyclodextrin, water + ETA (ChCl:EG 1:2), x*ETA = 0.2, 298.15 K
  solubility at 24 h: 221 mg/mL
25 °C, aqueous with cosolvent or surfactant or cyclodextrin, water + ETA (ChCl:EG 1:2), x*ETA = 0.4, 298.15 K
  solubility at 24 h: 407 mg/mL
25 °C, aqueous with cosolvent or surfactant or cyclodextrin, water + ETA (ChCl:EG 1:2), x*ETA = 0.5, 298.15 K
  solubility at 24 h: 457 mg/mL
25 °C, aqueous with cosolvent or surfactant or cyclodextrin, water + GLE (ChCl:GL 1:2), x*GLE = 0.2, 298.15 K
  solubility at 24 h: 115 mg/mL
25 °C, aqueous with cosolvent or surfactant or cyclodextrin, water + GLE (ChCl:GL 1:2), x*GLE = 0.4, 298.15 K
  solubility at 24 h: 233 mg/mL
25 °C, aqueous with cosolvent or surfactant or cyclodextrin, water + GLE (ChCl:GL 1:2), x*GLE = 0.5, 298.15 K
  solubility at 24 h: 299 mg/mL
25 °C, aqueous with cosolvent or surfactant or cyclodextrin, water + GLE (ChCl:GL 1:2), x*GLE = 0.8, 298.15 K
  solubility at 24 h: 266 mg/mL
25 °C, organic solvent or mixture, neat DES choline chloride + glycerol (GLE) 1:2 molar ratio (x*GLE = 1.0), 298.15 K
  solubility at 24 h: 191 mg/mL
25 °C, organic solvent or mixture, neat DES choline chloride + glycerol (GLE) 1:4 molar ratio, 298.15 K
  solubility at 24 h: 177 mg/mL
30 °C, aqueous with cosolvent or surfactant or cyclodextrin, water + ETA (ChCl:EG 1:2), x*ETA = 0.2, 303.15 K
  solubility at 24 h: 270 mg/mL
30 °C, aqueous with cosolvent or surfactant or cyclodextrin, water + ETA (ChCl:EG 1:2), x*ETA = 0.4, 303.15 K
  solubility at 24 h: 505 mg/mL
30 °C, aqueous with cosolvent or surfactant or cyclodextrin, water + ETA (ChCl:EG 1:2), x*ETA = 0.5, 303.15 K
  solubility at 24 h: 554 mg/mL
30 °C, aqueous with cosolvent or surfactant or cyclodextrin, water + GLE (ChCl:GL 1:2), x*GLE = 0.2, 303.15 K
  solubility at 24 h: 148 mg/mL
30 °C, aqueous with cosolvent or surfactant or cyclodextrin, water + GLE (ChCl:GL 1:2), x*GLE = 0.4, 303.15 K
  solubility at 24 h: 328 mg/mL
30 °C, aqueous with cosolvent or surfactant or cyclodextrin, water + GLE (ChCl:GL 1:2), x*GLE = 0.5, 303.15 K
  solubility at 24 h: 415 mg/mL
30 °C, aqueous with cosolvent or surfactant or cyclodextrin, water + GLE (ChCl:GL 1:2), x*GLE = 0.6, 303.15 K
  solubility at 24 h: 464 mg/mL
30 °C, aqueous with cosolvent or surfactant or cyclodextrin, water + GLE (ChCl:GL 1:2), x*GLE = 0.8, 303.15 K
  solubility at 24 h: 364 mg/mL
30 °C, organic solvent or mixture, neat DES choline chloride + glycerol (GLE) 1:1 molar ratio, 303.15 K
  solubility at 24 h: 203 mg/mL
30 °C, organic solvent or mixture, neat DES choline chloride + glycerol (GLE) 1:2 molar ratio (x*GLE = 1.0), 303.15 K
  solubility at 24 h: 282 mg/mL
30 °C, organic solvent or mixture, neat DES choline chloride + glycerol (GLE) 1:4 molar ratio, 303.15 K
  solubility at 24 h: 246 mg/mL
35 °C, aqueous with cosolvent or surfactant or cyclodextrin, water + ETA (ChCl:EG 1:2), x*ETA = 0.2, 308.15 K
  solubility at 24 h: 331 mg/mL
35 °C, aqueous with cosolvent or surfactant or cyclodextrin, water + ETA (ChCl:EG 1:2), x*ETA = 0.4, 308.15 K
  solubility at 24 h: 603 mg/mL
35 °C, aqueous with cosolvent or surfactant or cyclodextrin, water + GLE (ChCl:GL 1:2), x*GLE = 0.2, 308.15 K
  solubility at 24 h: 201 mg/mL
35 °C, aqueous with cosolvent or surfactant or cyclodextrin, water + GLE (ChCl:GL 1:2), x*GLE = 0.4, 308.15 K
  solubility at 24 h: 402 mg/mL
35 °C, aqueous with cosolvent or surfactant or cyclodextrin, water + GLE (ChCl:GL 1:2), x*GLE = 0.5, 308.15 K
  solubility at 24 h: 518 mg/mL
35 °C, aqueous with cosolvent or surfactant or cyclodextrin, water + GLE (ChCl:GL 1:2), x*GLE = 0.6, 308.15 K
  solubility at 24 h: 567 mg/mL
35 °C, aqueous with cosolvent or surfactant or cyclodextrin, water + GLE (ChCl:GL 1:2), x*GLE = 0.8, 308.15 K
  solubility at 24 h: 472 mg/mL
35 °C, organic solvent or mixture, neat DES choline chloride + glycerol (GLE) 1:1 molar ratio, 308.15 K
  solubility at 24 h: 274 mg/mL
35 °C, organic solvent or mixture, neat DES choline chloride + glycerol (GLE) 1:2 molar ratio (x*GLE = 1.0), 308.15 K
  solubility at 24 h: 369 mg/mL
35 °C, organic solvent or mixture, neat DES choline chloride + glycerol (GLE) 1:4 molar ratio, 308.15 K
  solubility at 24 h: 336 mg/mL
40 °C, aqueous with cosolvent or surfactant or cyclodextrin, water + ETA (ChCl:EG 1:2), x*ETA = 0.2, 313.15 K
  solubility at 24 h: 382 mg/mL
40 °C, aqueous with cosolvent or surfactant or cyclodextrin, water + ETA (ChCl:EG 1:2), x*ETA = 0.4, 313.15 K
  solubility at 24 h: 684 mg/mL
40 °C, aqueous with cosolvent or surfactant or cyclodextrin, water + GLE (ChCl:GL 1:2), x*GLE = 0.2, 313.15 K
  solubility at 24 h: 252 mg/mL
40 °C, aqueous with cosolvent or surfactant or cyclodextrin, water + GLE (ChCl:GL 1:2), x*GLE = 0.4, 313.15 K
  solubility at 24 h: 514 mg/mL
40 °C, aqueous with cosolvent or surfactant or cyclodextrin, water + GLE (ChCl:GL 1:2), x*GLE = 0.5, 313.15 K
  solubility at 24 h: 647 mg/mL
